Measurements reported in patent US20040127439A1, “Introduction of the wld gene for prevention of axonal degeneration in neurological diseases” (priority 2004, published 2004).
Where two headings read alike, the source gives them in different places.

Assays:
[1] = system: Wld^S cultured neurites; assay: Vincristine neuropathy in Wld^S mouse DRG cultures; assay type: cell-based; settings: for halo area at day 10 compared to day 0 / length of longest axons at day 10 compared to day 0: Wld^S
Method: DRGs were allowed to mature for 5 days to create a lush halo of neurites. […] This date was defined as treatment day 0. […] Cultures were monitored and imaged on day 0, day 4, day 8 and day 10 of treatment using video microscopy.
Measures of axonal survival were the length of longest remaining axon, and the area of remaining DRG halo, as determined by serial phase-contrast video microscopy (FIG. 6). The axonal length was measured from the center of the DRG to the visible distal end of the axon. […] Data were thus analyzed as percent of day 0.

[2] = system: DRG neurites; settings: for reduction in DRG area versus day 0: vincristine 0.01 μM; for Area (DRG neuritic halo) / Length (longest neurite): Vin 0.01 μM, AK295 50 μM, EGTA 2 mM, sulfate salt
Method: On the day of DRG culture, the dishes are washed twice with PBS buffer (pH 7.4), filled with 550 μl medium and pre-incubated at 37 C for at least 2 hours. Fifteen-day old embryos (E15) are removed from pregnant Sprague-Dawley rats (Charles River), and spinal cords with cervical and thoracic DRGs attached are dissected into Leibovitz L-15 medium (GIBCO). Ganglia are separated from the spinal cord, stripped of their connective tissue sheaths and roots, and are then pooled and washed twice with PBS buffer (pH 7.4). DRGs are plated (4 per dish) in culture media and incubated at 37° C. in 5% carbon dioxide for 4 hours to allow DRGs to attach to the substrate. Medium is then added to bring the total volume to 1 ml. […] Calcium-free medium is prepared in the same manner, replacing MEM with S-MEM (GIBCO).
At the end of the treatment period (see below) DRGs are fixed for 30 minutes with 4% paraformaldehyde. Cultures are then rinsed with 0.1M TBS buffer, and treated sequentially with 3% H2O2, TBS-Triton, and 4% normal goat serum (NGS), each for 30 minutes at room temperature. DRGs are incubated at 4 C overnight in monoclonal antibody to MAP5 (1:500, Sigma). After washing in TBS-Triton, DRGs are incubated for 60 minutes in biotinylated secondary antibody, rinsed with TBS and reacted with avidin-biotin complex solution (ABC; Vector Labs) for one hour. Color is generated by incubation for 10 minutes in diaminobenzidine (DAB) solution, enhanced by addition of 0.025% cobalt chloride and 0.02% nickel ammonium sulfate. Stained tissue is rinsed, air dried and cover-slipped for microscopy with Crystal/Mount (Biomeda).
This method of allowing neuritic extension to proceed before addition of a neurotoxin tests the effect of the toxin on established neurites as opposed to the effect on primary neuritic outgrowth.
After day 5 of culture, the media is changed to that containing the experimental treatment. This date is defined as treatment day 0. Cultures are monitored and imaged daily using video microscopy. […] AK 295 (Z-leu-Abu-(CH2)3-4-morpholinyl, gift of Dr. James Powers, Georgia Institute of Technology), is dissolved in 100% DMSO and is then diluted to its final concentration with culture medium. The final concentration of DMSO is 0.05%. Phenylmethylsulfonyl fluoride (PMSF) is manufactured by and commercially available from Sigma.
After 6 days of treatment (11 days in culture) immunostained DRGs are quantitated for degree of axonal degeneration. Images of the DRGs and neurites are captured onto disk using a computerized video imaging system, and are analyzed using NIH Image version 1.61. DRG areas are calculated by tracing the outside circumference of the remaining culture halo. The length of the longest neurite of each DRG is measured from the center of the DRG to the distal end of the neurite, so that cultures without remaining neurites still have positive values. These quantitative data are subjected to ANOVA, with post-test correction for multiple comparisons.

[3] = system: rat DRG cultures; assay: Resistance to vincristine-induced axonal degeneration in adenovirus-infected rat DRG cultures; assay type: cell-based
Method: Adenovirus was generated as previously described. Briefly, the modified transfer vector was linearized with NheI for preparation of the recombinant adenovirus. […] The transfected 293A cells were trypsinized and diluted with 293A cells, seeded into the 96-well tissue culture plates, and kept at 37 C, 5% CO2 for several days. […] Recombinant adenoviruses were purified from wild type viruses by the limiting dilution method. Adenovirus titers were determined by TCID-50 (Tissue Culture Infectious Dose).
Cultures had extended neurites for 6 days before introduction of the transgene. Transgene expression, indicated by GFP fluorescence, was monitored by fluorescence microscopy.
The methods for DRG culture have been previously described. […] Suppression of Schwann cell growth was accomplished by addition of fluorodeoxyuridine and uridine (both at a dose of 10^−6M, Sigma) on days 2-5.
E15 DRG were grown in culture for 6 days and then exposed to adenovirus (with or without the Wld^Stransgene) as described above. […] Length and area measurements were performed and analyzed as described above for mouse cultures.

[4] = system: Wld^S DRG axons; assay: Vincristine withdrawal in Wld^S mouse DRG cultures; assay type: cell-based; settings: 0.05 μM vincristine for 24 hours
Method: The methods for DRG culture have been previously described.
Cultures were measured for length of longest axon and area of the DRG halo at days 4, 8, 12, 16 and 20. Lengths were measured from the center of the DRG to the visible distal end of the axon, and areas were calculated by tracing the circumference crested by connecting the tips of the remaining axons. […] Comparisons were made between quantitative data for C57BL/6 and Wld^S axons. For assessment of growth, day 4 observations in Wld^S were compared to all succeeding days using ANOVA for repeated measures.

[5] = Day 3 of treatment, listed as Vin
[6] = Day 4 of treatment, listed as Vin
[7] = Day 6 of treatment, PMSF 50 μM, listed as Vin
[8] = Day 4, continuous 0.01 μM vincristine
[9] = Day 8, continuous 0.01 μM vincristine
[10] = Day 10, continuous 0.01 μM vincristine

Vincristine sulfate salt
halo area at day 10 compared to day 0 ([1]; vincristine 0.01 μM): 64.75±2.62% | length of longest axons at day 10 compared to day 0 ([1]; vincristine 0.01 μM): 84.33±2.54% | halo area at day 10 compared to day 0 ([1]; vincristine 0.1 μM): 7.92±3.83% | length of longest axons at day 10 compared to day 0 ([1]; vincristine 0.1 μM): 10.17±3.22% | Area of DRG Halo ([1]; vincristine 0.01 μM, Day 4, Wld^S): 7.27 ± 0.51 mm^2 | Area of DRG Halo ([1]; vincristine 0.01 μM, Day 8, Wld^S): 6.50 ± 0.56 mm^2 | Area of DRG Halo ([1]; vincristine 0.01 μM, Day 10, Wld^S): 5.60 ± 0.51 mm^2 | Area of DRG Halo ([1]; vincristine 0.02 μM, Day 4, Wld^S): 5.95 ± 0.72 mm^2 | Area of DRG Halo ([1]; vincristine 0.02 μM, Day 8, Wld^S): 3.39 ± 0.64 mm^2 | Area of DRG Halo ([1]; vincristine 0.02 μM, Day 10, Wld^S): 2.53 ± 0.59 mm^2 | Area of DRG Halo ([1]; vincristine 0.05 μM, Day 4, Wld^S): 4.17 ± 0.45 mm^2 | Area of DRG Halo ([1]; vincristine 0.05 μM, Day 8, Wld^S): 1.63 ± 0.48 mm^2 | Area of DRG Halo ([1]; vincristine 0.05 μM, Day 10, Wld^S): 0.80 ± 0.36 mm^2 | Area of DRG Halo ([1]; vincristine 0.1 μM, Day 4, Wld^S): 5.30 ± 0.86 mm^2 | Area of DRG Halo ([1]; vincristine 0.1 μM, Day 8, Wld^S): 2.00 ± 0.66 mm^2 | Area of DRG Halo ([1]; vincristine 0.1 μM, Day 10, Wld^S): 0.59 ± 0.28 mm^2 | process of axonal degeneration (in words) ([2]; 0.01 μM): relatively slow | reduction in DRG area versus day 0 ([2]; 4 days exposure): 91.5% | reduction in DRG area versus day 0 ([2]; 6 days exposure): 97.9% | Area (DRG neuritic halo) [2, 5]: 6.78 ± 1.06 (17) mm^2 | Length (longest neurite) [2, 5]: 1.62 ± 0.19 mm | Area (DRG neuritic halo) ([2]; Day 3 of treatment): 6.78±1.06 mm^2 | Length (longest neurite) ([2]; Day 3 of treatment): 1.62±0.19 mm | Area (DRG neuritic halo) [2, 6]: 2.45 ± 0.74 (13) mm^2 | Length (longest neurite) [2, 6]: 0.91 ± 0.19 mm | Area (DRG neuritic halo) ([2]; Day 4 of treatment): 2.45±0.74 mm^2 | Length (longest neurite) ([2]; Day 4 of treatment): 0.91±0.19 mm | Area (DRG neuritic halo) [2, 7]: 0.61 ± 0.21 (48) mm^2 | Length (longest neurite) [2, 7]: 0.37 ± 0.06 mm | Area (DRG neuritic halo) ([2]; Day 6 of treatment, PMSF 50 μM): 0.16±0.61 mm^2 | Length (longest neurite) ([2]; Day 6 of treatment, PMSF 50 μM): 0.37±0.06 mm | time within which axonal degeneration occurs ([2]; concentrations 0.05 μM, 5 day-old cultures): 1 to 3 days | reduction in length of the longest axons versus day 0 ([2]; day 3, vincristine 0.01 μM): 57.6% | reduction in length of the longest axons versus day 0 ([2]; day 4, vincristine 0.01 μM): 76.2% | reduction in length of the longest axons versus day 0 ([2]; day 6, vincristine 0.01 μM): 90.3% | reduction in DRG area versus day 0 ([2]; three days exposure): 76.6% | time until fibers are completely replaced by axonal debris ([2]; vincristine exposure (FIG. 1: 0.01 μM)): 5 to 6 days | Area of DRG halo (% of Day 0) [3, 8]: 30.43 ± 5.05 % of Day 0 | Length of axons (% of Day 0) [3, 8]: 48.79 ± 4.72 % of Day 0 | Area of DRG halo (% of Day 0) [3, 9]: 13.23 ± 1.52 % of Day 0 | Length of axons (% of Day 0) [3, 9]: 35.86 ± 3.76 % of Day 0 | Area of DRG halo (% of Day 0) [3, 10]: 9.78 ± 2.22 % of Day 0 | Length of axons (% of Day 0) [3, 10]: 26.28 ± 4.08 % of Day 0 | duration of growth arrest [4]: 10 days | area after resumed growth, % of control values ([4]; 20-day observation period): 150% | length after resumed growth, % of control values ([4]; 20-day observation period): 125%
